Seven compounds from patent US20240400564A1 (Syndax Pharmaceuticals, Inc, priority 2021, published 2024) can be followed below.

Series [1] relates to MLLr leukemia cell line MV4-11. The series is described as follows: Cell proliferation assay MV4;11 (CellTiter-Glo, 72 hours). The series is classed as cell-based. Particulars: Homo sapiens; MV4-11 cells, 72 hours, CellTiter-Glo; read-out: MV4; 11 IC50. The method, boiled down: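 Cells in IMDM/10% FBS, seeded from a 15,000 cells/ml suspension, were exposed for 72 h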
For the next series, the target named is hERG (Homo sapiens, UniProt Q12809). The series can be described thus: Patch clamp assay (hERG tail currents, whole-cell). As to conditions: 30 μM compound.
Sequence of hERG (Q12809 whole entry): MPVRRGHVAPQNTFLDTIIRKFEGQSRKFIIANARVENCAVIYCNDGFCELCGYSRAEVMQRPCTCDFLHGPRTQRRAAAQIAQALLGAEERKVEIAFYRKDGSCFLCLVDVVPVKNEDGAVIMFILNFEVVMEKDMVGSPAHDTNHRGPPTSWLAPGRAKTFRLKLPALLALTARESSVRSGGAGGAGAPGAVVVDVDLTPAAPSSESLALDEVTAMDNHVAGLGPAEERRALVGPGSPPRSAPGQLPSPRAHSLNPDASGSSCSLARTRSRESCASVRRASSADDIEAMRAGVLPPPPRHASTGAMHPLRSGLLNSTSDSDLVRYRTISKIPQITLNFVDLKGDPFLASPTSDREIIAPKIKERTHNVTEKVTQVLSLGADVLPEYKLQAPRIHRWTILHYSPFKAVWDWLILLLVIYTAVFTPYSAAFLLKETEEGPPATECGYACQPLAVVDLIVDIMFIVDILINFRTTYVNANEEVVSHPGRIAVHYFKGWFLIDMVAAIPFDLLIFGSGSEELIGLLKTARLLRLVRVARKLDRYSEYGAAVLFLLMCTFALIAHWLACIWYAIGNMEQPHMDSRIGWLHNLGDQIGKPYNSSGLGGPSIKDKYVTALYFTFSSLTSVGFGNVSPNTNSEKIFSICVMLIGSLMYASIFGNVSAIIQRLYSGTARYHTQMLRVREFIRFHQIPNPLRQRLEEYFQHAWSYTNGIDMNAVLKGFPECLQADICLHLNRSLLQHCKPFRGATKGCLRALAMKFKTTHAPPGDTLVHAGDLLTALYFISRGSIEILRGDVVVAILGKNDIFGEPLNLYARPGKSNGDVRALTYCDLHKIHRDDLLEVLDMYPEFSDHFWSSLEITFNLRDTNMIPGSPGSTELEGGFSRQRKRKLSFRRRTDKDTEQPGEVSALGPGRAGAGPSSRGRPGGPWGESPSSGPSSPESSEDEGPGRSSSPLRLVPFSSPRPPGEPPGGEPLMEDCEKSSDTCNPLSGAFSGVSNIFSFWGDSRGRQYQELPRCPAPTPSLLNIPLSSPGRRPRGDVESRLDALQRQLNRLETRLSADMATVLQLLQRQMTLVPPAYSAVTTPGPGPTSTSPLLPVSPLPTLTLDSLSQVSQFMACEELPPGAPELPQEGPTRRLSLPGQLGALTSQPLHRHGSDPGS

Consider `CC(C)N(C(=O)c1cc(F)ccc1Oc1cncnc1N1CC2(CCN(C[C@@H]3CC[C@@H](NS(=O)(=O)N4CCC[C@@H]4C)CO3)CC2)C1)C(C)C` [Example 202, 5-Fluoro-N,N-diisopropyl-2-((4-(7-(((2S,5R)-5-(((S)-2-methylpyrrolidine)-1-sulfonamido)tetrahydro-2H-pyran-2-yl)methyl)-2,7-diazaspiro[3.5]nonan-2-yl)pyrimidin-5-yl)oxy)benzamide], for which the IC50 in series [1] was < 100 nM. Moreover, the “hERG % Remaining” value on hERG is on record as “+ (<33%)”.
As for `CC(C)N(C(=O)c1cc(F)ccc1Oc1cncnc1N1CC2(CCN(C[C@@H]3CC[C@@H](NS(=O)(=O)N4CCC[C@H]4C)CO3)CC2)C1)C(C)C` [Example 203, 5-Fluoro-N,N-diisopropyl-2-((4-(7-(((2S,5R)-5-(((R)-2-methylpyrrolidine)-1-sulfonamido)tetrahydro-2H-pyran-2-yl)methyl)-2,7-diazaspiro[3.5]nonan-2-yl)pyrimidin-5-yl)oxy)benzamide], the IC50 in series [1] is < 100 nM. Further, on hERG, the “hERG % Remaining” value is given as “+ (<33%)”.
Consider `C[C@@H]1COC[C@@H](C)N1C(=O)c1cc(F)ccc1Oc1cncnc1N1CC2(CCN(C[C@@H]3CC[C@@H](NS(=O)(=O)N4CCC[C@H]4C)CO3)CC2)C1` [Example 208, (R)-N-((3R,6S)-6-((2-(5-(2-((3R,5R)-3,5-Dimethylmorpholine-4-carbonyl)-4-fluorophenoxy)pyrimidin-4-yl)-2,7-diazaspiro[3.5]nonan-7-yl)methyl)tetrahydro-2H-pyran-3-yl)-2-methylpyrrolidine-1-sulfonamide], for which the IC50 in series [1] is < 100 nM. The “hERG % Remaining” value at hERG is on record as “+++ (≥66%)”.
As to `CO[C@H]1CCN(S(=O)(=O)N[C@@H]2CC[C@@H](CN3CCC4(CC3)CN(c3ncncc3Oc3ccc(F)cc3C(=O)N(C(C)C)C(C)C)C4)OC2)C1` [Example 210, 5-Fluoro-N,N-diisopropyl-2-((4-(7-(((2S,5R)-5-(((S)-3-methoxypyrrolidine)-1-sulfonamido)tetrahydro-2H-pyran-2-yl)methyl)-2,7-diazaspiro[3.5]nonan-2-yl)pyrimidin-5-yl)oxy)benzamide], the IC50 in series [1] was < 100 nM. The “hERG % Remaining” value on hERG is on record as “+++ (≥66%)”.
As for `CO[C@@H]1CCN(S(=O)(=O)N[C@@H]2CC[C@@H](CN3CCC4(CC3)CN(c3ncncc3Oc3ccc(F)cc3C(=O)N(C(C)C)C(C)C)C4)OC2)C1` [Example 211, 5-Fluoro-N,N-diisopropyl-2-((4-(7-(((2S,5R)-5-(((R)-3-methoxypyrrolidine)-1-sulfonamido)tetrahydro-2H-pyran-2-yl)methyl)-2,7-diazaspiro[3.5]nonan-2-yl)pyrimidin-5-yl)oxy)benzamide], the IC50 in series [1] was < 100 nM. Moreover, the “hERG % Remaining” value at hERG is on record as “+++ (≥66%)”.
With `CCN(C(=O)c1cc(F)ccc1Oc1cncnc1N1CC2(CCN(C[C@@H]3CC[C@@H](NS(=O)(=O)c4ccc(=O)[nH]c4C)CO3)CC2)C1)C(C)C` [Example 217, N-Ethyl-5-fluoro-N-isopropyl-2-((4-(7-(((2S,5R)-5-((2-methyl-6-oxo-1,6-dihydropyridine)-3-sulfonamido)tetrahydro-2H-pyran-2-yl)methyl)-2,7-diazaspiro[3.5]nonan-2-yl)pyrimidin-5-yl)oxy)benzamide], in series [1], the IC50 was < 100 nM. On hERG, the “hERG % Remaining” value is “+++ (≥66%)”.
`CCN(C(=O)c1cc(F)ccc1Oc1cncnc1N1CC2(CCN(C[C@@H]3CC[C@@H](NS(=O)(=O)c4c[nH]c(=O)c(C)c4)CO3)CC2)C1)C(C)C` [Example 218, N-Ethyl-5-fluoro-N-isopropyl-2-((4-(7-(((2S,5R)-5-((5-methyl-6-oxo-1,6-dihydropyridine)-3-sulfonamido)tetrahydro-2H-pyran-2-yl)methyl)-2,7-diazaspiro[3.5]nonan-2-yl)pyrimidin-5-yl)oxy)benzamide]: the IC50 in series [1] was < 100 nM. Also, the “hERG % Remaining” value at hERG is on record as “+ (<33%)”.
